In patent US4122184A, “Benzimidazole insecticides” (priority 1977, dated 1978):

Key:
[1] = system: Two-spotted Spider Mite; assay: Two-spotted Spider Mite test; assay type: in vivo, Tetranychus urticae (Acarina); details: 48 h
Method: The procedure in this test is the same as that in the previous aphid test, except that about 100 two-spotted spider mites from a stock colony raised on squash plants are transferred to a cut squash cotyledon. The mortality is estimated 48 hours after spraying. The same rating scale is used.

[2] = system: House Fly; assay: Housefly (Contact) Test; assay type: in vivo, Musca domestica (Diptera); details: 24 h
Method: Rearing cages containing four-day old adult house flies are chilled at 35°-40° F. for about 1 hour. One hundred flies are transferred from the rearing cage to each test cage using a small scoop. The caged flies are kept for 1-2 hours at 70°-80° F. The cages are sprayed in the same manner as described for the milkweed bug with 5 ml. of the test formulation. Two unsprayed cages are held as controls and two cages are sprayed with a 50 ppm DDT formulation as a reference standard. Mortality counts are made 24 hours after spraying. […] The same rating scale is employed as heretofore.

[3] = system: Oriental Cockroach; assay: Oriental Roach Test; assay type: in vivo, Blatta orientalis (Orthoptera); details: 24 h
Method: A rearing pan of late instar (3-4 months old) roaches is placed in a cold room for about 1 hour. Ten nymphs are taken from the pan and placed in each cage and the caged insects are kept at 70°-80° F. for 1 hour. The test cages are then sprayed in the manner indicated above in the milkweed bug test using 5 ml. of a formulation containing a specified amount of the insecticide. The test cages are held for 72 hours during which time the cockroaches are neither fed nor watered. Controls consist of 2 unsprayed cages, two cages sprayed with the formulation alone and 2 cages with a formulation containing 1000 ppm of heptachlor. Mortality counts are made 24 hours after spraying by shaking the cages lightly. All cockroaches remaining in the bottom are counted as dead.

[4] = system: Milkweed Bug; assay: Milkweed Bug Test; assay type: in vivo, Oncopeltis fasciatus (Hemiptera); details: 48 h
Method: Ten adult milkweed bugs are chilled and placed in a test cage. The cages containing the bugs are sprayed with 5 ml. of a test formulation containing a pre-determined amount of the insecticide, using a DeVilbiss atomizer at 10 psi held 33 inches from the top of the cage. After the cage has been allowed to dry, the bugs are fed and watered for 48 hours. A formulation containing 500 ppm of malathion is used as a reference standard and two unsprayed cages are kept as controls. Mortality counts are made 48 hours after spraying. Moribund adults are considered dead. The same rating scale is employed as before.

[5] = system: Mexican Bean Beetle; assay: Mexican Bean Beetle Test; assay type: in vivo, Epilachna varivestis (Coleoptera); details: 48 h
Method: Cuttings of four six-day old Bountiful snap bean plants containing two leaves with approximately 5 square inches of leaf surface, are placed in water. The leaves are sprayed to wetting with about 5-10 ml. of a formulation containing a pre-determined level of the test compound. Half of the formulation is sprayed on the top surface and half on the bottom surface of the leaf using a DeVilbiss atomizer at 10 psi held at a distance of about 18 inches from the leaf. After the leaves have dried, they are cut from the stem and placed separately in petri dishes. Ten third instar, nonmolting Mexican bean beetle larvae grown on Bountiful snap beans are placed on each leaf. Controls consist of two leaves sprayed with 5 ml. of a 500 ppm malathion formulation (reference standard), two leaves sprayed with the formulation without the active ingredient and two leaves are held as untreated controls. After 48 hours, a mortality count is made and the amount of feeding noted. Moribund larvae are counted as dead.

[6] = system: House Fly; assay: Housefly (Stomach) Test; assay type: in vivo, Musca domestica (Diptera); details: 24 h
Method: Ten chilled house flies are taken from the rearing cage and placed in a covered petri dish. Sugar cubes treated with 0.2 ml. of a formulation containing a specified level of the insecticide are placed in the petri dish one hour after the flies have been removed from the chill room. Controls consist of sugar cubes treated with 0.2 ml. of deionized water and cubes treated with 0.2 ml. of a formulation containing 500 ppm of malathion. Mortality counts are made 24 hours later. The same rating scale is used as before.

[7] = system: Boll Weevil; assay: Boll Weevil Test; assay type: in vivo, Anthonomus grandis (Coleoptera); details: 48 h
From the text: The procedure is identical to that employed for the Mexican bean beetle and the Southern armyworm, except that 10 adult boll weevils are placed on cotton leaves that have been dipped into formulations of the test compounds. The same rating scale is used.

[8] = system: Southern Armyworm; assay: Southern Armyworm Test; assay type: in vivo, Prodenia eridania (Lepidoptera); details: 500 ppm, 48 h
Method: Ten uniform Southern armyworm larvae about 1-1.5 cm. in length, grown on Henderson lima beans, are placed on excized bean leaves in petri dishes. The bean leaves are obtained and sprayed with the insecticide in the same way as are the snap bean leaves in the Mexican bean beetle test. The reference standards in this instance are leaves sprayed with 5 ml. 100 ppm DDT solution. Mortality counts are made 48 hours after spraying and again moribund larvae are counted as dead. Missing larvae which have probably been eaten are considered alive. The same rating scale is used as in the Mexican bean beetle test.

[9] = system: Squash Bug Adults; assay: Field trial, contact poison test; assay type: in vivo; design: key: 0-9 rating: 0 = 0-10% mortality, 9 = 91-100% mortality
From the text: (§1) Infested plants are placed in 6 oz. prescription bottles filled with water to keep them from wilting. Cellucotton is wrapped around the plant stem and squeezed into the bottle neck to prevent the insects from drowning.
(§2) A DeVilbiss Special Atomizer (5004) is used at 10 psi to spray the test plant with different concentrations of compounds. The atomizer is held at arm's length to prevent blowing the insects off the host plant. After treating, the bottles are placed on a table covered with brown wrapping paper to catch the dead insects as they drop from the plant. The plants are spaced so the leaves or plants are not touching one another.
(§3) The results are read at 24, 48, and 72 hours when applicable. The rating scale is 0 to 9 where 0 = 0-10 percent and 9 = 91-100 percent mortality.
(§4) Using the above methods, field trials were carried out against species of 5 orders of insects. The results, which are summarized in the following tables, give the average mortality for the particular insect with a given benzimidazole for each concentration employed. […] These tables contain all results obtained during the summer trials.

[10] = system: Melon Aphid; assay: Melon Aphid Test; assay type: in vivo, Aphis gossypii (Hemiptera); details: 250 ppm, 24 h
From the text: Four blue hubbard squash seeds are planted per container in vermiculite and the containers watered from the bottom. After 6 days, the two weakest plants are cut off and one cotyledon and the primary leaves are removed from each of the two remaining plants. The remaining cotyledon is infested with 100 melon aphids from a stock colony by pinning the cotyledon against an aphid-infested squash cotyledon from the colony and allowing the aphids to transfer. After transfer, the colony leaf is removed. Forty-eight hours later, the infested leaves are sprayed to wetting with formulations containing graded amounts of the insecticide using a DeVilbiss atomizer at 10 psi held at 12-15 inches from the plant. Controls consist of two infested, unsprayed squash plants and two infested plants sprayed to wetting with a formulation containing 100 ppm malathion as a reference standard. The mortality is estimated 24 hours after spraying by observation using a 10 power dissecting microscope. The same rating scale is used as before.

[11] = system: Southern Corn Rootworm Adults; assay: Field trial, contact poison test; assay type: in vivo
From the text: as §1, §2, §3, §4

[12] = system: Tarnished Plant Bug Adults; assay: Field trial, stomach poison test; assay type: in vivo; design: key: mortality rating on a 0 to 9 scale
Method: (§5) Leaves from the infested plant are treated with different concentrations of the test compounds, either by spraying with a DeVilbiss Special Atomizer (5004) at 10 psi or by dipping the leaves in solutions containing the compound. The leaves are then allowed to air dry.
(§6) After the leaves have dryed, they are placed in plastic petri dishes (100 × 25 mm), then the insects are counted out into each dish, five or ten insects per dish depending on the number of insects available. There are one or two replicates and usually two or three rates with each compound. Mortality results are taken at 24, 48 and 72 hours. The rating scale is 0 to 9.
as §4

[13] = system: Unidentified Green Leafhopper; assay: Field trial, stomach poison test; assay type: in vivo; design: key: mortality rating on a 0 to 9 scale
Method: as §5, §6, §4

[14] = system: Yellow Mealworm Larvae; assay: Field trial, topical application; assay type: in vivo; design: key: 0 = 0-10% mortality, 9 = 91-100% mortality (0-9 scale)
Method: as §3
In a variation of the above test, 1 microliter of a test solution containing a predetermined number of micrograms of benzimidazole was applied directly to larvae or adult insects.
as §4

[15] = system: Meadow Spittlebug; assay: Field trial, stomach poison test; assay type: in vivo
Method: as §5, §6, §4

[16] = system: Southern Corn Rootworm Adults; assay: Field trial, stomach poison test; assay type: in vivo; design: key: mortality rating on a 0 to 9 scale
Method: as §5, §6, §4

CC(COc1ccc(C(C)(C)C)cc1)OS(=O)OCCCl (stereo not drawn) [Aramite, reference compound]
mortality rating ([1]; 50 ppm): 7-9

Clc1ccc(C(c2ccc(Cl)cc2)C(Cl)(Cl)Cl)cc1 [DDT, reference compound]
mortality rating ([2]; 50 ppm): 6-8

CCOC(=O)n1c(C(F)(F)F)nc2c([N+](=O)[O-])cc(C(F)(F)F)cc21 [G, ethyl 2,6-bis(trifluoromethyl)-4-nitro-1-benzimidazolecarboxylate]
mortality rating ([3]; 1000 ppm): 5.5

ClC1=C(Cl)C2(Cl)C3C(Cl)C=CC3C1(Cl)C2(Cl)Cl (stereo not drawn) [Heptachlor, reference compound]
mortality rating ([3]; 1000 ppm): 8-9

O=[N+]([O-])c1cc(C(F)F)cc2nc(C(F)(F)F)[nH]c12 [M, 2-trifluoromethyl-4-nitro-6-difluoromethylbenzimidazole]
mortality rating ([4]; 50 ppm): .5
mortality rating ([4]; 100 ppm): 3.5
mortality rating ([3]; 500 ppm): 1.5
mortality rating ([1]; 100 ppm): 6.5
mortality rating ([1]; 250 ppm): 8.5
mortality rating ([5]; 50 ppm): 1.5
mortality rating ([5]; 100 ppm): 5.5
mortality rating ([5]; 500 ppm): 7.5
mortality rating ([6]; 100 ppm): 5.5
mortality rating ([7]; 50 ppm): 1.5
mortality rating ([7]; 250 ppm): 8.5
mortality rating ([7]; 500 ppm): 8.5
mortality rating ([7]; 1000 ppm): 7.5
mortality rating ([2]; 10 ppm): 8.5
mortality rating [8]: .5

CCOC(=O)CC(SP(=S)(OC)OC)C(=O)OCC (stereo not drawn) [Malathion, reference compound]
mortality rating ([4]; 500 ppm): 7-8
mortality rating ([5]; 500 ppm): 7- 8
mortality rating ([6]; 500 ppm): 6-7
mortality rating ([7]; 500 ppm): 7-8

O=C(Oc1ccc([N+](=O)[O-])cc1)n1c(C(F)(F)F)nc2c([N+](=O)[O-])cc(C(F)(F)F)cc21 [N, p-nitrophenyl-4-nitro-2,6-bis(trifluoromethyl)-1-benzimidazolecarboxylate]
average mortality rating ([9]; 125 ppm): 1
average mortality rating ([9]; 250 ppm): 6
average mortality rating ([9]; 500 ppm): 5
average mortality rating ([9]; 750 ppm): 8
mortality rating ([3]; 500 ppm): 4.5
mortality rating ([3]; 1000 ppm): 5.5
mortality rating [10]: 7.5
mortality rating ([1]; 1 ppm): 2.5
mortality rating ([1]; 5 ppm): 1.5
mortality rating ([1]; 500 ppm): 8.5
average mortality rating ([11]; 25 ppm): 0 (0-10 percent)
average mortality rating ([11]; 50 ppm): 5
average mortality rating ([11]; 100 ppm): 3
average mortality rating ([12]; 10 ppm): 3
average mortality rating ([12]; 25 ppm): 3
average mortality rating ([12]; 50 ppm): 3
average mortality rating ([13]; 10 ppm): 0 (0-10 percent)
average mortality rating ([13]; 25 ppm): 1
average mortality rating ([13]; 50 ppm): 3
average mortality rating ([14]; 0.03 μg/μl): 1
average mortality rating ([14]; 0.07 μg/μl): 3
average mortality rating ([14]; 0.15 μg/μl): 7
mortality rating ([7]; 10 ppm): 1.5
mortality rating ([7]; 25 ppm): 3.5
average mortality rating ([15]; 10 ppm): 1
average mortality rating ([15]; 25 ppm): 1
average mortality rating ([15]; 50 ppm): 0 (0-10 percent)

mixture of 7-nitro-1-piperidinothionocarbonyl-2,5-bis(trifluoromethyl)benzimidazole and 4-nitro-1-piperidinothionocarbonyl-2,6-bis(trifluoromethyl)benzimidazole
average mortality rating ([11]; 25 ppm): 0 (0-10 percent)
average mortality rating ([11]; 50 ppm): 9 (91-100 percent mortality)
average mortality rating ([11]; 100 ppm): 9 (91-100 percent mortality)
average mortality rating ([16]; 25 ppm): 1
average mortality rating ([16]; 50 ppm): 7
average mortality rating ([16]; 100 ppm): 3
average mortality rating ([14]; 0.03 μg/μl): 3
average mortality rating ([14]; 0.07 μg/μl): 3
average mortality rating ([14]; 0.15 μg/μl): 3

mixture of N-ethyl-4-nitro-2,6-bis(trifluoromethyl)thio-1-benzimidazolecarboxanilide and N-ethyl-nitro-2,5-bis(trifluoromethyl)thio-1-benzimidazolecarboxanilide
mortality rating ([4]; 1000 ppm): 1 (11-20)
mortality rating ([3]; 1000 ppm): 0 (0-10)
mortality rating ([1]; 1000 ppm): 5 (51-60)
mortality rating ([5]; 10 ppm): 1.5
mortality rating ([5]; 25 ppm): 6 (61-70)
mortality rating ([5]; 50 ppm): 5.5
mortality rating ([5]; 100 ppm): 6.5
mortality rating ([5]; 250 ppm): 9 (91-100)
mortality rating ([5]; 500 ppm): 9 (91-100)
mortality rating ([5]; 1000 ppm): 9 (91-100)
mortality rating ([6]; 1000 ppm): 1 (11-20)
mortality rating ([7]; 10 ppm): 0 (0-10)
mortality rating ([7]; 25 ppm): 6.5
mortality rating ([7]; 50 ppm): 7.5
mortality rating ([7]; 100 ppm): 8 (81-90)
mortality rating ([7]; 250 ppm): 8.5
mortality rating ([7]; 500 ppm): 9 (91-100)
mortality rating ([7]; 1000 ppm): 9 (91-100)
mortality rating ([2]; 10 ppm): 6.5
mortality rating ([2]; 25 ppm): 8.5
mortality rating ([2]; 50 ppm): 8 (81-90)
mortality rating ([2]; 100 ppm): 8 (81-90)
mortality rating ([2]; 250 ppm): 9 (91-100)
mortality rating ([2]; 500 ppm): 9 (91-100)
mortality rating ([2]; 1000 ppm): 7 (71-80)
